We go through 25 compounds from patent US20220235049A1, “SUBSTITUTED PYRROLO [2, 3-b] PYRIDINE AND PYRAZOLO [3,4-b] PYRIDINE DERIVATIVES AS PROTEIN KINASE INHIBITORS” (Fochon Pharmaceuticals, Ltd., priority 2019, published 2022).

pIC50: −log10 of the molar value.

This test deals with DOHH2 cells. Kind of test: Cell proliferation assay in DOHH2 cells (MTS). The format is cell-based. Conditions: Homo sapiens, DOHH-2, 120 h. On the procedure: To investigate whether a compound is able to inhibit the activity of BTK in cells, a mechanism-based assay using DOHH2 (DSMZ catalog #: ACC47) cell was developed. In this assay, inhibition of BTK was detected by the inhibition of DOHH2 cells proliferation. Cells were collected and plated onto 96-well plates at the optimized cell density (5000 cells/well). Plates were incubated at 37° C., with 5% CO2 for 4 h. Compounds were serially diluted and added to the plates with the final concentrations as 10000, 3333.3, 1111.1, 370.4, 123.5, 41.2, 13.7, 4.6 and 1.5 nM. Plates were incubated at 37° C., with 5% CO2 for 120 h. An aliquot of 20 μL MTS/100 μL medium mixture solution were added to each well and the plates were incubated for exactly 2 h. The reaction was stopped by adding 25 μL 10% SDS to each well. The absorbance was measured by a microplate reader at 490 nm and 650 nm (reference wavelength). IC50 was calculated using GraphPad Prism 5.0.
Select compounds prepared as described above were assayed according to the biological procedures described herein.
For the compound `N#Cc1cnc2[nH]cc(C(=O)c3ccc(Oc4ccccc4F)cc3)c2c1N[C@@H]1CC[C@@H](CO)OC1` [Example 88, 3-(4-(2-fluorophenoxy)benzoyl)-4-(((3R,6S)-6-(hydroxymethyl)tetrahydro-2H-pyran-3-yl)amino)-1H-pyrrolo[2,3-b]pyridine-5-carbonitrile], the pIC50 was 7.00.

In the case of `N#Cc1cnc2[nH]cc(C(=O)c3ccc(Oc4ccccc4F)cc3F)c2c1N[C@@H]1CC[C@@H](CO)OC1` [Example 90, 3-(2-fluoro-4-(2-fluorophenoxy)benzoyl)-4-(((3R,6S)-6-(hydroxymethyl)tetrahydro-2H-pyran-3-yl)amino)-1H-pyrrolo[2,3-b]pyridine-5-carbonitrile], the pIC50 was 7.30.

Turning to `O=C(c1ccc(Oc2ccccc2F)cc1)c1c[nH]c2ncc(Cl)c(N[C@@H]3CC[C@@H](CO)OC3)c12` [Example 98, (5-chloro-4-(((3R,6S)-6-(hydroxymethyl)tetrahydro-2H-pyran-3-yl)amino)-1H-pyrrolo[2,3-b]pyridin-3-yl)(4-(2-fluorophenoxy)phenyl)methanone], the pIC50 is 7.39.

The compound `O=C(c1ccc(Oc2ccccc2F)cc1F)c1c[nH]c2ncc(Cl)c(N[C@@H]3CC[C@@H](CO)OC3)c12` [Example 99, (5-chloro-4-(((3R,6S)-6-(hydroxymethyl)tetrahydro-2H-pyran-3-yl)amino)-1H-pyrrolo[2,3-b]pyridin-3-yl)(2-fluoro-4-(2-fluorophenoxy)phenyl)methanone] had a pIC50 of 7.62.

Compound `O=C(c1ccc(Oc2ccccc2F)cc1Cl)c1c[nH]c2ncc(Cl)c(N[C@@H]3CC[C@@H](CO)OC3)c12` [Example 100, (5-chloro-4-(((3R,6S)-6-(hydroxymethyl)tetrahydro-2H-pyran-3-yl)amino)-1H-pyrrolo[2,3-b]pyridin-3-yl)(2-chloro-4-(2-fluorophenoxy)phenyl)methanone] had a pIC50 of 7.17.

In turn, `O=C(c1ccc(Oc2ccccc2F)cc1F)c1c[nH]c2nccc(N[C@@H]3CC[C@@H](CO)OC3)c12` [Example 102, (2-fluoro-4-(2-fluorophenoxy)phenyl)(4-(((3R,6S)-6-(hydroxymethyl)tetrahydro-2H-pyran-3-yl)amino)-1H-pyrrolo[2,3-b]pyridin-3-yl)methanone] gave a pIC50 of 8.15.

As to `Cc1cc(Oc2ccccc2F)ncc1C(=O)c1c[nH]c2nccc(N[C@@H]3CC[C@@H](CO)OC3)c12` [Example 103, (6-(2-fluorophenoxy)-4-methylpyridin-3-yl)(4-(((3R,6S)-6-(hydroxymethyl)tetrahydro-2H-pyran-3-yl)amino)-1H-pyrrolo[2,3-b]pyridin-3-yl)methanone], the pIC50 is 7.41.

For the compound `O=C(c1ccc(Oc2ccccc2F)cc1)c1c[nH]c2nccc(N[C@@H]3CC[C@@H](CO)OC3)c12` [Example 104, (4-(2-fluorophenoxy)phenyl)(4-(((3R,6S)-6-(hydroxymethyl)tetrahydro-2H-pyran-3-yl)amino)-1H-pyrrolo[2,3-b]pyridin-3-yl)methanone], the pIC50 was 7.64.

Consider `COc1cc(Oc2ccccc2F)cnc1C(=O)c1c[nH]c2nccc(N[C@@H]3CC[C@@H](CO)OC3)c12` [Example 110, (5-(2-fluorophenoxy)-3-methoxypyridin-2-yl)(4-(((3R,6S)-6-(hydroxymethyl)tetrahydro-2H-pyran-3-yl)amino)-1H-pyrrolo[2,3-b]pyridin-3-yl)methanone], for which the pIC50 is 7.02.

As for `O=C(c1ccc(Oc2ccccc2F)cc1)c1c[nH]c2ncc(F)c(N[C@@H]3CC[C@@H](CO)OC3)c12` [Example 114, (5-fluoro-4-(((3R,6S)-6-(hydroxymethyl)tetrahydro-2H-pyran-3-yl)amino)-1H-pyrrolo[2,3-b]pyridin-3-yl)(4-(2-fluorophenoxy)phenyl)methanone], the pIC50 is 7.92.

For the compound `O=C(c1ccc(Oc2ccccc2F)cc1F)c1c[nH]c2ncc(F)c(N[C@@H]3CC[C@@H](CO)OC3)c12` [Example 115, (5-fluoro-4-(((3R,6S)-6-(hydroxymethyl)tetrahydro-2H-pyran-3-yl)amino)-1H-pyrrolo[2,3-b]pyridin-3-yl)(2-fluoro-4-(2-fluorophenoxy)phenyl)methanone], the pIC50 was 8.30.

On to `Cc1cc(Oc2ccccc2F)ncc1C(=O)c1c[nH]c2ncc(F)c(N[C@@H]3CC[C@@H](CO)OC3)c12` [Example 117, (5-fluoro-4-(((3R,6S)-6-(hydroxymethyl)tetrahydro-2H-pyran-3-yl)amino)-1H-pyrrolo[2,3-b]pyridin-3-yl)(6-(2-fluorophenoxy)-4-methylpyridin-3-yl)methanone], for which the pIC50 is 7.16.

In the case of `O=C(c1ccc(Oc2ccccc2F)cc1Cl)c1c[nH]c2ncc(F)c(N[C@@H]3CC[C@@H](CO)OC3)c12` [Example 125, (2-chloro-4-(2-fluorophenoxy)phenyl)(5-fluoro-4-(((3R,6S)-6-(hydroxymethyl)tetrahydro-2H-pyran-3-yl)amino)-1H-pyrrolo[2,3-b]pyridin-3-yl)methanone], the pIC50 is 9.00.

As for `Cc1cc(Oc2ccccc2F)ccc1C(=O)c1c[nH]c2ncc(F)c(N[C@@H]3CC[C@@H](CO)OC3)c12` [Example 126, (5-fluoro-4-(((3R,6S)-6-(hydroxymethyl)tetrahydro-2H-pyran-3-yl)amino)-1H-pyrrolo[2,3-b]pyridin-3-yl)(4-(2-fluorophenoxy)-2-methylphenyl)methanone], the pIC50 was 8.40.

For the compound `Cc1cc(Oc2ccccc2F)cc(F)c1C(=O)c1c[nH]c2nccc(N[C@@H]3CC[C@@H](CO)OC3)c12` [Example 130, (2-fluoro-4-(2-fluorophenoxy)-6-methylphenyl)(4-(((3R,6S)-6-(hydroxymethyl)tetrahydro-2H-pyran-3-yl)amino)-1H-pyrrolo[2,3-b]pyridin-3-yl)methanone], the pIC50 is 7.44.

`COc1cnc2[nH]cc(C(=O)c3c(C)cc(Oc4ccccc4F)cc3F)c2c1N[C@@H]1CC[C@@H](CO)OC1` [Example 132, (2-fluoro-4-(2-fluorophenoxy)-6-methylphenyl)(4-(((3R,6S)-6-(hydroxymethyl)tetrahydro-2H-pyran-3-yl)amino)-5-methoxy-1H-pyrrolo[2,3-b]pyridin-3-yl)methanone] showed a pIC50 of 8.15.

Compound `COc1cnc2[nH]cc(C(=O)c3ccc(Oc4ccccc4)cc3C)c2c1N[C@@H]1CC[C@@H](CO)OC1` [Example 134, (4-(((3R,6S)-6-(hydroxymethyl)tetrahydro-2H-pyran-3-yl)amino)-5-methoxy-1H-pyrrolo[2,3-b]pyridin-3-yl)(2-methyl-4-phenoxyphenyl)methanone] had a pIC50 of 9.00.

For the compound `CCOc1cnc2[nH]cc(C(=O)c3c(C)cc(Oc4ccccc4F)cc3F)c2c1N[C@@H]1CC[C@@H](CO)OC1` [Example 135, (5-ethoxy-4-(((3R,6S)-6-(hydroxymethyl)tetrahydro-2H-pyran-3-yl)amino)-1H-pyrrolo[2,3-b]pyridin-3-yl)(2-fluoro-4-(2-fluorophenoxy)-6-methylphenyl)methanone], the pIC50 is 9.00.

As for `COc1cnc2[nH]cc(C(=O)c3ccc(Oc4ccccc4F)cc3F)c2c1N[C@@H]1CC[C@@H](CNC(C)=O)OC1` [Example 160, N-(((2S,5R)-5-((3-(2-fluoro-4-(2-fluorophenoxy)benzoyl)-5-methoxy-1H-pyrrolo[2,3-b]pyridin-4-yl)amino)tetrahydro-2H-pyran-2-yl)methyl)acetamide], the pIC50 was 9.00.

Compound `COc1cnc2[nH]cc(C(=O)c3ccc(Oc4ccccc4F)cc3F)c2c1N[C@@H]1CC[C@@H](CNS(C)(=O)=O)OC1` [Example 161, N-(((2S,5R)-5-((3-(2-fluoro-4-(2-fluorophenoxy)benzoyl)-5-methoxy-1H-pyrrolo[2,3-b]pyridin-4-yl)amino)tetrahydro-2H-pyran-2-yl)methyl)methanesulfonamide] showed a pIC50 of 7.85.

`COC(=O)NC[C@@H]1CC[C@@H](Nc2c(OC)cnc3[nH]cc(C(=O)c4ccc(Oc5ccccc5F)cc4F)c23)CO1` [Example 163, methyl (((2S,5R)-5-((3-(2-fluoro-4-(2-fluorophenoxy)benzoyl)-5-methoxy-1H-pyrrolo[2,3-b]pyridin-4-yl)amino)tetrahydro-2H-pyran-2-yl)methyl)carbamate] showed a pIC50 of 7.35.

As to `COc1cnc2[nH]cc(C(=O)c3ccc(Oc4ccccc4F)cc3F)c2c1N[C@@H]1CCC(CO)(CO)OC1` [Example 164, (R)-(4-((6,6-bis(hydroxymethyl)tetrahydro-2H-pyran-3-yl)amino)-5-methoxy-1H-pyrrolo[2,3-b]pyridin-3-yl)(2-fluoro-4-(2-fluorophenoxy)phenyl)methanone], the pIC50 was 7.66.

On to `COc1cnc2[nH]cc(C(=O)c3ccc(Oc4ccccc4)cc3)c2c1N[C@@H]1CC[C@@H](CO)OC1` [Example 177, (4-(((3R,6S)-6-(hydroxymethyl)tetrahydro-2H-pyran-3-yl)amino)-5-methoxy-1H-pyrrolo[2,3-b]pyridin-3-yl)(4-phenoxyphenyl)methanone], for which the pIC50 was 8.05.

On to `CCOc1cnc2[nH]cc(C(=O)c3ccc(Oc4ccccc4)cc3)c2c1N[C@@H]1CC[C@@H](CO)OC1` [Example 178, (5-ethoxy-4-(((3R,6S)-6-(hydroxymethyl)tetrahydro-2H-pyran-3-yl)amino)-1H-pyrrolo[2,3-b]pyridin-3-yl)(4-phenoxyphenyl)methanone], for which the pIC50 was 7.82.

Regarding `O=C(c1ccc(Oc2c(F)cccc2F)cc1)c1c[nH]c2ncc(F)c(N[C@@H]3CC[C@@H](CO)OC3)c12` [Example 183, (4-(2,6-difluorophenoxy)phenyl)(5-fluoro-4-(((3R,6S)-6-(hydroxymethyl)tetrahydro-2H-pyran-3-yl)amino)-1H-pyrrolo[2,3-b]pyridin-3-yl)methanone], the pIC50 was 7.77.

A word on the pIC50: it is −log10 of the IC50, conventionally taken in molar units.
